Read-outs that look alike come from different tables or passages of the source.
How the values were obtained:
[1] = Biological Oxygen Demand (BOD5), 5 day test; conditions: 50% (wt.) concentration in water, ratio BOD5 to COD
Source text: The oxygen demand of a compound during chemical oxidation and biological degradation is an indication of the persistence of the chemical in the environment. […] BOD is the amount of oxygen required for biological oxidation by bacteria growing under aerobic conditions. The ratio of BOD to COD can be used to assess whether a compound is readily biodegradable. When BOD5 is expressed as a percentage of COD, a BOD5 that is <1% of COD indicates a relatively nonbiodegradable compound and >10% of COD indicates a relatively degradable compound (the subscript “5” denotes a 5 day test).

[2] = 25% (wt.) concentration in water; cited from earlier work
[3] = 50% (wt.) concentration in water, in five days, value with literature reference 17, cited from earlier work

Structure (SMILES) | Biodegradability (BOD5/COD)% [1] | Freezing point [2] | Biodegradability (BOD5/COD)% ([1]; listed as Potassium Succinate) | Biodegradability (BOD5/COD)% ([1]; listed as succinate) | Biodegradability (BOD5/COD)% ([3]; listed as Potassium formate) | Biodegradability (BOD5/COD)% ([3]; listed as potassium formate)
OCCO [Ethylene Glycol] | 61% | −12.0^20 °C | – | – | – | –
O=C([O-])CCC(=O)[O-].[K+].[K+] [Test No. 1, potassium succinate] | – | −12.5^14 °C | 68% | highly biodegradable | – | –
CC(=O)[O-].[K+] [Test No. 2, potassium acetate] | highly biodegradable | −18.0^14 °C | – | – | – | –
O=C[O-].[K+] [Test No. 3, potassium formate] | – | −15.0^17 °C | – | – | 100%^17 | 100%
CC(O)CO (stereo not drawn) [Propylene Glycol] | 59% | −11.0^21 °C | – | – | – | –

— US7938981B2, “Deicing and heat transfer fluid compositions” (Bioamber S.A.S., priority 2009, dated 2011)
